Test results as given in patent publication US20090069300A1, “ISOQUINOLINYL AND ISOINDOLINYL DERIVATIVES AS HISTAMINE-3 ANTAGONISTS” (Wyeth, priority 2007, published 2009).
Where a name gives a salt, the structure may show the parent alone.

Tested on: not given
Assay: not given
Settings: not given
Molecule `O=C(O)c1ccc(Oc2ccc3c(c2)CCN(CCN2CCCC2)C3=O)cc1` has a melting point of 99 to 100 °C.
For `CCCNC(=O)c1ccc(-c2ccc3c(c2)CCN(CCN2CCCC2)C3=O)cc1` (as salt: hydrochloride), the melting point was 240 to 241 °C.
For `C[C@@H]1CCCN1CCN1Cc2ccc(-c3ccc(F)cc3)cc2C1` (as salt: hydrochloride), the melting point was 250 to 251 °C.
`COC(=O)c1ccc(-c2ccc3c(c2)CCN(CCN2CCCC2)C3=O)cc1` (as salt: hydrochloride) showed a melting point of 118 to 120 °C.
With `COc1ccc2c(c1)CCN(CCN1CCCC1)C2=O` (as salt: hydrochloride) the melting point was 201 to 202 °C.
Molecule `COC(=O)c1ccc(Oc2ccc3c(c2)CCN(CCN2CCCC2)C3=O)cc1` (as salt: hydrochloride) has a melting point of 215 to 216 °C.
In the case of `O=C1c2ccc(-c3cc(F)cc(F)c3)cc2CCN1CCN1CCCC1` (as salt: hydrochloride) [Example 10, 6-(3,5-difluorophenyl)-2-(2-pyrrolidin-1-ylethyl)-3,4-dihydroisoquinolin-1(2H)-one], the melting point is reported as 196 to 198 °C.
Molecule `O=C1c2ccc(-c3ccccc3F)cc2CCN1CCN1CCCC1` (as salt: hydrochloride) [Example 12, 6-(2-fluorophenyl)-2-(2-pyrrolidin-1-ylethyl)-3,4-dihydroisoquinolin-1(2H)-one] has a melting point of 211 to 213 °C.
In the case of `O=C1c2ccc(-c3cccc(OC(F)(F)F)c3)cc2CCN1CCN1CCCC1` (as salt: hydrochloride) [Example 13, 2-(2-pyrrolidin-1-ylethyl)-6-[3-(trifluoromethoxy)phenyl]-3,4-dihydroisoquinolin-1(2H)-one], the melting point is reported as 135 to 137 °C.
`N#Cc1cccc(-c2ccc3c(c2)CCN(CCN2CCCC2)C3=O)c1` (as salt: hydrochloride) [Example 15, 3-[1-oxo-2-(2-pyrrolidin-1-ylethyl)-1,2,3,4-tetrahydroisoquinolin-6-yl]benzonitrile] gave a melting point of 204 to 206 °C.
Molecule `O=C1c2ccc(-c3ccccc3)cc2CCN1CCN1CCCC1` (as salt: hydrochloride) [Example 16, 6-phenyl-2-(2-pyrrolidin-1-ylethyl)-3,4-dihydroisoquinolin-1(2H)-one] has a melting point of 218 to 220 °C.
Molecule `O=C1c2ccc(-c3ccc(F)c(F)c3)cc2CCN1CCN1CCCC1` (as salt: hydrochloride) [Example 17, 6-(3,4-difluorophenyl)-2-(2-pyrrolidin-1-ylethyl)-3,4-dihydroisoquinolin-1(2H)-one] has a melting point of 179 to 180 °C.

Molecular target: T1, Human Histamine H3 Receptor (Homo sapiens, UniProt Q9Y5N1)
T1 construct: expressed in transfected cells; host or cells: HEK293T (stably transfected; membranes prepared from the cells)
T1 sequence (Q9Y5N1 whole entry): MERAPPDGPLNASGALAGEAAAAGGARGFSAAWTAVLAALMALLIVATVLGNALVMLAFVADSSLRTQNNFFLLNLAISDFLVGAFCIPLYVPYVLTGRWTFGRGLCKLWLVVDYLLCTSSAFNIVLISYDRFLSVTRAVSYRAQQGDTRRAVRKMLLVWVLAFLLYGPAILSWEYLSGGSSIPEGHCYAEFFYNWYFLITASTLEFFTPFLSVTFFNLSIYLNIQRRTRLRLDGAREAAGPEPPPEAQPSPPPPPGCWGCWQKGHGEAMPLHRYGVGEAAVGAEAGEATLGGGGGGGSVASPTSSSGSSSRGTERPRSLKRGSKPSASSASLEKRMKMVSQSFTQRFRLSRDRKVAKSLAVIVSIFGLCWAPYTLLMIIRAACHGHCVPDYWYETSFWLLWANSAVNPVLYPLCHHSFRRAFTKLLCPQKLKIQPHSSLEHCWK
Assay: Methyl histamine binding in human histamine H3 receptor cell line
Settings: read-out: H3 Binding Ki
In short: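 Radioligand binding on membranes (10 μg/well) from a human H3 receptor cell line, 1 nM radioligand, 1 h at 30° C. in 50 mM Tris pH 7.5. Nonspecific binding defined with 10 uM clobenpropit, followed by filtration and scintillation counting. IC50 from four-parameter fit, converted to Ki by Cheng-Prusoff.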
In the case of `CN(C)C(=O)c1ccc(-c2ccc3c(c2)CCN(CCN2CCCC2)C3=O)c(F)c1` [Example 137, 3-fluoro-N,N-dimethyl-4-[1-oxo-2-(2-pyrrolidin-1-ylethyl)-1,2,3,4-tetrahydroisoquinolin-6-yl]benzamide], the Ki is reported as < 10 nM.
For `O=C(c1ccc(-c2ccc3c(c2)CCN(CCN2CCCC2)C3=O)c(F)c1)N1CCCC1` [Example 138, 6-[2-fluoro-4-(pyrrolidin-1-ylcarbonyl)phenyl]-2-(2-pyrrolidin-1-ylethyl)-3,4-dihydroisoquinolin-1(2H)-one], the Ki was < 10 nM.
With `CNC(=O)c1ccc(-c2ccc3c(c2)CCN(CCN2CCCC2)C3=O)c(F)c1` [Example 139, 3-fluoro-N-methyl-4-[1-oxo-2-(2-pyrrolidin-1-ylethyl)-1,2,3,4-tetrahydroisoquinolin-6-yl]benzaimde] the Ki was < 10 nM.
For `CCNC(=O)c1ccc(-c2ccc3c(c2)CCN(CCN2CCCC2)C3=O)c(F)c1` [Example 140, N-ethyl-3-fluoro-4-[1-oxo-2-(2-pyrrolidin-1-ylethyl)-1,2,3,4-tetrahydroisoquinolin-6-yl]benzamide], the Ki was < 10 nM.
For `CNC(=O)c1ccc(-c2ccc3c(c2)CCN(CCCN2CCCC2)C3=O)cc1` [Example 141, N-methyl-4-[1-oxo-2-(3-pyrrolidin-1-ylpropyl)-1,2,3,4-tetrahydroisoquinolin-6-yl]benzamide], the Ki was < 10 nM.
With `C[C@@H]1CCCN1CCN1CCc2cc(C(=O)N3CCCCCC3)ccc2C1=O` [Example 144, 6-(azepan-1-ylcarbonyl)-2-{2-[(2R)-2-methylpyrrolidin-1-yl]ethyl}-3,4-dihydroisoquinolin-1(2H)-one] the Ki was < 10 nM.
In the case of `C[C@@H]1CCCN1CCN1CCc2cc(C(=O)NC3CCC3)ccc2C1=O` [Example 145, N-cyclobutyl-2-{2-[(2R)-2-methylpyrrolidin-1-yl]ethyl}-1-oxo-1,2,3,4-tetrahydroisoquinoline-6-carboxamide], the Ki is reported as < 10 nM.
In the case of `C[C@@H]1CCCN1CCN1CCc2cc(C(=O)N3CCCCC3)ccc2C1=O` [Example 146, 2-{2-[(2R)-2-methylpyrrolidin-1-yl]ethyl}-6-(piperidin-1-ylcarbonyl)-3,4-dihydroisoquinolin-1(2H)-one], the Ki is reported as < 10 nM.
For `C[C@@H]1CCCN1CCN1CCc2cc(C(=O)NC3CCCCC3)ccc2C1=O` [Example 147, N-cyclohexyl-2-{2-[(2R)-2-methylpyrrolidin-1-yl]ethyl}-1-oxo-1,2,3,4-tetrahydroisoquinoline-6-carboxamide], the Ki was < 10 nM.
In the case of `C[C@@H]1CCCN1CCN1CCc2cc(C(=O)NC3Cc4ccccc4C3)ccc2C1=O` [Example 148, N-(2,3-dihydro-1H-inden-2-yl)-2-{2-[(2R)-2-methylpyrrolidin-1-yl]ethyl}-1-oxo-1,2,3,4-tetrahydroisoquinoline-6-carboxamide], the Ki is reported as < 10 nM.
In the case of `C[C@@H]1CCCN1CCN1CCc2cc(C(=O)NC3CCCC3)ccc2C1=O` [Example 149, N-cyclopentyl-2-{2-[(2R)-2-methylpyrrolidin-1-yl]ethyl}-1-oxo-1,2,3,4-tetrahydroisoquinoline-6-carboxamide], the Ki is reported as < 10 nM.
With `C[C@@H]1CCCN1CCN1CCc2cc(C(=O)N3CCc4ccccc4C3)ccc2C1=O` [Example 150, 6-(3,4-dihydroisoquinolin-2(1H)-ylcarbonyl)-2-{2-[(2R)-2-methylpyrrolidin-1-yl]ethyl}-3,4-dihydroisoquinolin-1(2H)-one] the Ki was < 10 nM.
In the case of `C[C@@H]1CCCN1CCN1CCc2cc(C(=O)N3CCCC3)ccc2C1=O` [Example 151, 2-{2-[(2R)-2-methylpyrrolidin-1-yl]ethyl}-6-(pyrrolidin-1-ylcarbonyl)-3,4-dihydroisoquinolin-1(2H)-one], the Ki is reported as < 10 nM.
In the case of `C[C@@H]1CCCN1CCN1CCc2cc(C(=O)N3Cc4ccccc4C3)ccc2C1=O` [Example 152, 6-(1,3-dihydro-2H-isoindol-2-ylcarbonyl)-2-{2-[(2R)-2-methylpyrrolidin-1-yl]ethyl}-3,4-dihydroisoquinolin-1(2H)-one], the Ki is reported as < 10 nM.
In the case of `C[C@@H]1CCCN1CCN1CCc2cc(C(=O)Nc3ccncc3)ccc2C1=O` [Example 153, 2-{2-[(2R)-2-methylpyrrolidin-1-yl]ethyl}-1-oxo-N-pyridin-4-yl-1,2,3,4-tetrahydroisoquinoline-6-carboxamide], the Ki is reported as < 10 nM.
In the case of `C[C@@H]1CCCN1CCN1CCc2cc(-n3cnc4ccccc43)ccc2C1=O` [Example 154, (R)-6-(1H-benzo[d]imidazol-1-yl)-2-(2-(2-methylpyrrolidin-1-yl)ethyl)-3,4-dihydroisoquinolin-1(2H)-one hydrochloride], the Ki is reported as < 10 nM.
With `C[C@@H]1CCCN1CCN1CCc2cc(-c3ccc4c(c3)CCNC4=O)ccc2C1=O` [Example 157, (R)-2-(2-(2-methylpyrrolidin-1-yl)ethyl)-3,3′,4,4′-tetrahydro-6,6′-biisoquinoline-1,1′(2H,2′H-dione hydrochloride] the Ki was < 10 nM.
For `C[C@@H]1CCCN1CCN1CCc2cc(Oc3ccc(C(=O)N4CCCC4)cc3)ccc2C1=O` [Example 160, 2-{2-[(2R)-2-methylpyrrolidin-1-yl]ethyl}-6-[4-(pyrrolidin-1-ylcarbonyl)phenoxy]-3,4-dihydroisoquinolin-1(2H)-one hydrochloride], the Ki was < 10 nM.
For `C[C@@H]1CCCN1CCN1CCc2cc(N3CCCCC3)ccc2C1=O` [Example 161, 2-{2-[(2R)-2-methylpyrrolidin-1-yl]ethyl}-6-piperidin-1-yl-3,4-dihydroisoquinolin-1(2H)-one], the Ki was < 10 nM.
Molecule `NC(=O)c1ccc(-c2ccc3c(c2)CCN(CCN2CCCC2)C3)cc1` [Example 180, 4-[2-(2-pyrrolidin-1-ylethyl)-1,2,3,4-tetrahydroisoquinolin-6-yl]benzamide] has a Ki of 10.1 to 25 nM.
In the case of `CNC(=O)c1ccc(-c2ccc3c(c2)CCN(CCN2CCCC2)C3)cc1` [Example 181, N-methyl-4-[2-(2-pyrrolidin-1-ylethyl)-1,2,3,4-tetrahydroisoquinolin-6-yl]benzamide], the Ki is reported as < 10 nM.
For `CCNC(=O)c1ccc(-c2ccc3c(c2)CCN(CCN2CCCC2)C3)cc1` [Example 182, N-ethyl-4-[2-(2-pyrrolidin-1-ylethyl)-1,2,3,4-tetrahydroisoquinolin-6-yl]benzamide], the Ki was < 10 nM.
In the case of `CN(C)C(=O)c1ccc(-c2ccc3c(c2)CCN(CCN2CCCC2)C3)cc1` [Example 183, N,N-dimethyl-4-[2-(2-pyrrolidin-1-ylethyl)-1,2,3,4-tetrahydroisoquinolin-6-yl]benzamide], the Ki is reported as < 10 nM.
With `O=C(c1ccc(-c2ccc3c(c2)CCN(CCN2CCCC2)C3)cc1)N1CCCC1` [Example 184, 6-[4-(pyrrolidin-1-ylcarbonyl)phenyl]-2-(2-pyrrolidin-1-ylethyl)-1,2,3,4-tetrahydroisoquinoline] the Ki was < 10 nM.
`O=C(c1ccc(-c2ccc3c(c2)CCN(CCN2CCCC2)C3)cc1)N1CCCCC1` [Example 185, 6-[4-(piperidin-1-ylcarbonyl)phenyl]-2-(2-pyrrolidin-1-ylethyl)-1,2,3,4-tetrahydroisoquinoline] showed a Ki of 10.1 to 25 nM.
For `O=C(c1ccc(-c2ccc3c(c2)CCN(CCN2CCCC2)C3)cc1)N1CCOCC1` [Example 186, 6-[4-(morpholin-4-ylcarbonyl)phenyl]-2-(2-pyrrolidin-1-ylethyl)-1,2,3,4-tetrahydroisoquinoline], the Ki was < 10 nM.
`C[C@@H]1CCCN1C(=O)c1ccc(-c2ccc3c(c2)CCN(CCN2CCCC2)C3)cc1` [Example 187] gave a Ki of 10.1 to 25 nM.
